In one assay the target is T1, B1R of the rat (Rattus norvegicus, UniProt P97583).
T1 construct: expressed in transfected cells; host or cells: CHO K1 cells (rB1R cells)
T1 sequence (P97583 1-337): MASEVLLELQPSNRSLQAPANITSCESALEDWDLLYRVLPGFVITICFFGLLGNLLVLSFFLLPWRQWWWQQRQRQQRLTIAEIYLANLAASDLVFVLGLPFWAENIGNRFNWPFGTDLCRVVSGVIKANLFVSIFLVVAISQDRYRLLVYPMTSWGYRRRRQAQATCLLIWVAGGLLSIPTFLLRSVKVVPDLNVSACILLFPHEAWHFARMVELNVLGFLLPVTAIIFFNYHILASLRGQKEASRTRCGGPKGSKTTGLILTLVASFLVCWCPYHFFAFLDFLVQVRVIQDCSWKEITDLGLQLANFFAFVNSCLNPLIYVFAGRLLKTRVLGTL
In words: FLIPR Ca2+ influx assay, B1R antagonism, rat (rB1R CHO K1 cells). Conditions: test substance 10 μM, CHO K1 cells stably transfected with rat B1R, agonist Des-Arg9-bradykinin at EC80, % inhibition compared with maximum achievable inhibition; for inhibition at 10 µM: read-out: B1R antagonism, rat [10 μM] % inhibition. In kind it is cell-based. The procedure:
(§1) The agonistic or antagonistic action of substances can be quantified on the bradykinin receptor 1 (B1R) of the species human and rat using ectopically expressing cell lines (CHO K1 cells) and with the aid of a Ca^2+-sensitive dye (Fluo-4) using a fluorescent imaging plate reader (FLIPR). The indication in % activation is based on the Ca^2+ signal after addition of Lys-Des-Arg^9-bradykinin (0.5 nM) or Des-Arg^9-bradykinin (100 nM). Antagonists lead to suppression of the Ca^2+ influx after the addition of the agonist. % Inhibition compared with the maximum achievable inhibition is indicated.
(§2) The agonistic or antagonistic action of substances can be determined on the bradykinin receptor 1 (B1R) of the species human and rat using the following assay. According to this assay, the Ca^2+ influx through the channel is quantified with the aid of a Ca^2+-sensitive dye (Fluo-4 type, Molecular Probes Europe BV, Leiden, Netherlands) using a Fluorescent Imaging Plate Reader (FLIPR, Molecular Devices, Sunnyvale, USA).
(§3) Chinese hamster ovary cells (CHO K1 cells) which have been stably transfected with the human B1R gene (hB1R cells) or with the B1R gene of the rat (rB1R cells) are used. For functional studies, the cells are plated out on black 96-well plates having a clear base (BD Biosciences, Heidelberg, Germany or Greiner, Frickenhausen, Germany) in a density of 20,000-35,000 cells/well. The cells are incubated overnight at 37° C. and with 5% CO2 in culture medium (hB1R cells: Nutrient Mixture Ham's F12, Gibco Invitrogen GmbH, Karlsruhe, Germany or DMEM, Sigma-Aldrich, Taufkirchen, Germany; rB1R cells: D-MEM/F12, Gibco Invitrogen GmbH, Karlsruhe, Germany), with 10 vol. % FBS (fetal bovine serum, Gibco Invitrogen GmbH, Karlsruhe, Germany or PAN Biotech GmbH, Aidenbach, Germany).
(§4) On the following day, the cells are loaded for 60 minutes at 37° C. with 2.13 μM Fluo-4 (Molecular Probes Europe BV, Leiden, Netherlands) in HBSS buffer (Hank's buffered saline solution, Gibco Invitrogen GmbH, Karlsruhe, Germany) […] (Sigma-Aldrich, Taufkirchen, Germany) and 10 mM HEPES (Sigma-Aldrich, Taufkirchen, Germany). The plates are then washed twice with HBSS buffer, and HBSS buffer additionally containing 0.1% BSA (bovine serum albumin; Sigma-Aldrich, Taufkirchen, Germany), 5.6 mM glucose and 0.05% gelatin (Merck KGaA, Darmstadt, Germany) is added to the plates. After incubation for a further 20 minutes at room temperature, the plates are inserted into the FLIPR for Ca^2+ measurement.
(§5) Alternatively, washing is carried out with buffer A (15 mM HEPES, 80 mM NaCl, 5 mM KCl, 1.2 mM CaCl2, 0.7 mM MgSO4, 2 g/l glucose, 2.5 mM probenecid) followed by loading with buffer A with added 2.5 μM Fluo-4 and 0.025% Pluronic F127 (Sigma-Aldrich, Taufkirchen, Germany). The cells are then washed twice with buffer A and incubated for 30 minutes at room temperature with buffer A additionally containing 0.05% BSA and 0.05% gelatin and are then inserted into the FLIPR for Ca^2+ measurement.
(§6) The Ca^2+-dependent fluorescence is measured before and after the addition of substances (λex=488 nm, λem=540 nm). Quantification is carried out by measuring the highest fluorescence intensity (FC, fluorescence counts) over time.
(§7) The FLIPR protocol consists of two substance additions. Test substances (10 μM) are first pipetted onto the cells and the Ca^2+ influx is compared with the control (hB1R: Lys-Des-Arg^9-bradykinin >=50 nM; rB1R: Des-Arg^9-bradykinin 10 μM). This gives the activation in %, based on the Ca^2+ signal after addition of Lys-Des-Arg^9-bradykinin (>=50 nM) or Des-Arg^9-bradykinin (10 μM). After 10-20 minutes' incubation, Lys-Des-Arg^9-bradykinin (hB1R) or Des-Arg^9-bradykinin (rB1R) is applied in the concentration of the EC80, and the influx of Ca^2+ is likewise determined. Antagonists lead to suppression of the Ca^2+ influx. The % inhibition compared with the maximum achievable inhibition is calculated. […]

The next assay has as its target T2, human B1R (Homo sapiens, UniProt P46663).
T2 construct: expressed in transfected cells; host or cells: CHO K1 cells (hB1R cells)
T2 sequence (P46663 1-353): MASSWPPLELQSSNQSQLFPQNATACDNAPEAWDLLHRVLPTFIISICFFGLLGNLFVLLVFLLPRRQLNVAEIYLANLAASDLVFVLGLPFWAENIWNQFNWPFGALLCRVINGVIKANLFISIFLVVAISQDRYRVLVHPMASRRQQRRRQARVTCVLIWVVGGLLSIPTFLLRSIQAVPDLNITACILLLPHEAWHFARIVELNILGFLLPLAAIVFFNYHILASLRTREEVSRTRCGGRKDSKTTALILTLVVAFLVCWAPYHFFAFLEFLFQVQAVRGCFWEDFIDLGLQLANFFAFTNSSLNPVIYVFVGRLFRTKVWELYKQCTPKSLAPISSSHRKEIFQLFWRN
In words: FLIPR Ca2+ influx assay, B1R antagonism, human (hB1R CHO K1 cells). In kind it is cell-based. Conditions: test substance 10 μM, CHO K1 cells stably transfected with human B1R, agonist Lys-Des-Arg9-bradykinin at EC80, % inhibition compared with maximum achievable inhibition. The procedure: as §1, §2, §3, §4, §5, §6, §7

By inhibition is commonly meant the change of the read-out against control, counted positive when it falls.

For the molecule `O=C(CC(NS(=O)(=O)c1ccc2ccccc2c1)c1ccccc1)N1CCC(CCN2CCCC2)(c2cccnc2)CC1` (stereo not drawn) [Example 1, N-(3-Oxo-1-phenyl-3-(4-(pyridin-3-yl)-4-(2-(pyrrolidin-1-yl)ethyl)piperidin-1-yl)propyl)naphthalene-2-sulfonamide], the inhibition at 10 µM was 63% at B1R of the rat and 104% on human B1R (read-out: B1R antagonism, human [10 μM] % inhibition).
For `COc1cc(C)c(S(=O)(=O)N2c3ccccc3CCC2COCC(=O)N2CCC(CCCN3CCCC3)(c3cccnc3)CC2)c(C)c1` (stereo not drawn) [Example 54, 2-[[1-[(4-Methoxy-2,6-dimethyl-phenyl)sulfonyl]-1,2,3,4-tetrahydro-quinolin-2-yl]-methoxy]-1-[4-pyridin-3-yl-4-(3-pyrrolidin-1-yl-propyl)-piperidin-1-yl]-ethanone], the “B1R antagonism, human [10 μM] % inhibition” value on human B1R is recorded as 100%.
As to `O=C(CCCC1CCCCN1S(=O)(=O)c1ccccc1C(F)(F)F)N1CCC(CCCN2CCCC2)(c2ccncc2)CC1` (stereo not drawn) [Example 58, 1-[4-Pyridin-4-yl-4-(3-pyrrolidin-1-yl-propyl)-piperidin-1-yl]-4-[1-[[2-(trifluoromethyl)-phenyl]sulfonyl]-piperidin-2-yl]-butan-1-one], the inhibition at 10 µM on B1R of the rat was 99%.
Turning to `O=C(CCCC1CCCCN1S(=O)(=O)c1ccccc1C(F)(F)F)N1CCC(CCCN2CCCC2)(c2ccncc2)CC1` (stereo not drawn) [Example 59, 1-[4-Pyridin-4-yl-4-(3-pyrrolidin-1-yl-propyl)-piperidin-1-yl]-4-[1-[[2-(trifluoromethyl)-phenyl]sulfonyl]-piperidin-2-yl]-butan-1-one], the “B1R antagonism, rat [10 μM] % inhibition” value at B1R of the rat was determined as 101%.
Take `COc1cc(C)c(S(=O)(=O)N2CCCCC2CCCC(=O)N2CCC(CCCN3CCCC3)(c3ccncc3)CC2)c(C)c1` (stereo not drawn) [Example 62, 4-[1-[(4-Methoxy-2,6-dimethyl-phenyl)sulfonyl]-piperidin-2-yl]-1-[4-pyridin-4-yl-4-(3-pyrrolidin-1-yl-propyl)-piperidin-1-yl]-butan-1-one]: the inhibition at 10 µM on B1R of the rat is 100%.
With `COc1cc(C)c(S(=O)(=O)N2CCCCC2CCCC(=O)N2CCC(CCCN3CCCC3)(c3ccncc3)CC2)c(C)c1` (stereo not drawn) [Example 63, 4-[1-[(4-Methoxy-2,6-dimethyl-phenyl)sulfonyl]-piperidin-2-yl]-1-[4-pyridin-4-yl-4-(3-pyrrolidin-1-yl-propyl)-piperidin-1-yl]-butan-1-one], on B1R of the rat, the “B1R antagonism, rat [10 μM] % inhibition” value stood at 102%.
For `O=C(CCCC1CCCCN1S(=O)(=O)c1cccc2ccccc12)N1CCC(CCCN2CCCC2)(c2ccncc2)CC1` (stereo not drawn) [Example 64, 4-[1-(Naphthalen-1-ylsulfonyl)-piperidin-2-yl]-1-[4-pyridin-4-yl-4-(3-pyrrolidin-1-yl-propyl)-piperidin-1-yl]-butan-1-one], the inhibition at 10 µM on B1R of the rat worked out at 46%.
Regarding `CS(=O)(=O)N(CCOCC(=O)N1CCC(CCCN2CCCC2)(c2ccncc2)CC1)C(c1ccccc1)c1ccccc1` [Example 65, N-Benzhydryl-N-[2-[2-oxo-2-[4-pyridin-4-yl-4-(3-pyrrolidin-1-yl-propyl)-piperidin-1-yl]-ethoxy]-ethyl]-methanesulfonic acid amide], the “B1R antagonism, rat [10 μM] % inhibition” value at B1R of the rat stood at 63%.
The same measure, in the same setting: the figure for `CS(=O)(=O)N(CCOCC(=O)N1CCC(CCCN2CCCC2)(c2ccncc2)CC1)C(c1ccccc1)c1ccccc1` [Example 66, N-Benzhydryl-N-[2-[2-oxo-2-[4-pyridin-4-yl-4-(3-pyrrolidin-1-yl-propyl)-piperidin-1-yl]-ethoxy]-ethyl]-methanesulfonic acid amide] is 99%.
Turning to `COc1cc(C)c(S(=O)(=O)N2c3ccccc3OCC2COCC(=O)N2CCC(CCCN3CCCC3)(c3ccncc3)CC2)c(C)c1` (stereo not drawn) [Example 69, 2-[[4-[(4-Methoxy-2,6-dimethyl-phenyl)sulfonyl]-3,4-dihydro-2H-[1,4]benzoxazin-3-yl]-methoxy]-1-[4-pyridin-4-yl-4-(3-pyrrolidin-1-yl-propyl)-piperidin-1-yl]-ethanone], the inhibition at 10 µM at B1R of the rat amounted to 99%.
As for `COc1cc(C)c(S(=O)(=O)N2c3ccccc3OCC2COCC(=O)N2CCC(CCCN3CCCC3)(c3ccncc3)CC2)c(C)c1` (stereo not drawn) [Example 70, 2-[[4-[(4-Methoxy-2,6-dimethyl-phenyl)sulfonyl]-3,4-dihydro-2H-[1,4]benzoxazin-3-yl]-methoxy]-1-[4-pyridin-4-yl-4-(3-pyrrolidin-1-yl-propyl)-piperidin-1-yl]-ethanone], the “B1R antagonism, rat [10 μM] % inhibition” value at B1R of the rat was determined as 100%.
As for `O=C(COCC1COc2ccccc2N1S(=O)(=O)c1ccccc1C(F)(F)F)N1CCC(CCCN2CCCC2)(c2cccnc2)CC1` (stereo not drawn) [Example 73, 1-[4-Pyridin-3-yl-4-(3-pyrrolidin-1-yl-propyl)-piperidin-1-yl]-2-[[4-[[2-(trifluoromethyl)-phenyl]sulfonyl]-3,4-dihydro-2H-[1,4]benzoxazin-3-yl]-methoxy]-ethanone], the inhibition at 10 µM on B1R of the rat was determined as 84%.
Same read-out and setting: for `O=C(COCC1COc2ccccc2N1S(=O)(=O)c1ccccc1C(F)(F)F)N1CCC(CCCN2CCCC2)(c2ccncc2)CC1` (stereo not drawn) [Example 75, 1-[4-Pyridin-4-yl-4-(3-pyrrolidin-1-yl-propyl)-piperidin-1-yl]-2-[[4-[[2-(trifluoromethyl)-phenyl]sulfonyl]-3,4-dihydro-2H-[1,4]benzoxazin-3-yl]-methoxy]-ethanone] the value was 68%; for `COc1cc(C)c(S(=O)(=O)N(CCOCC(=O)N2CCC(CCCN3CCCC3)(c3ccncc3)CC2)Cc2ccc3c(c2)OCOC3)c(C)c1` [Example 76, N-(4H-[1,3]Benzodioxin-7-yl-methyl)-4-methoxy-2,6-dimethyl-N-[2-[2-oxo-2-[4-pyridin-4-yl-4-(3-pyrrolidin-1-yl-propyl)-piperidin-1-yl]-ethoxy]-ethyl]-benzenesulfonic acid amide], 101%.
